4 compounds from patent publication US20010018071A1, “Oral 2-methyl-thieno-benzodiazepine formulation” (priority 1995, published 2001) can be followed below.

The nature of data set [1]: Detection of radiolabelled compound in saliva. It is filed as in vivo. On the procedure:
The anhydrous Form I 2-methyl-4-(4-methyl-1-piperazinyl)-10H-thieno-[2,3-b][1,5]benzodiazepine compound is effective over a wide dosage range, the actual dose administered being dependent on the condition being treated. For example, in the treatment of adult humans, dosages of from about 0.25 to 50 mg, preferably from 1 to 30 mg, and most preferably 1 to 20 mg per day may be used. A once a day dosage is normally sufficient, although divided doses may be administered. For treatment of central nervous system disorders, a dose range of from 1 to 30 mg, preferably 1 to 20 mg per day is suitable. Radiolabelled Form I 2-methyl-4-(4-methyl-1-piperazinyl)-10H-thieno-[2,3-b]

The nature of data set [2]: Polymorph stability and transformation. To be noted: for polymorph stability: anhydrous crystal forms. The data set is classed as physicochemical. An excerpt: Unfortunately, anhydrous Form II olanzapine is metastable and is therefore not well suited for commercial use in pharmaceutical formulations. Applicants have discovered that the pharmaceutically elegant anhydrous Form I olanzapine can be formulated in its substantially pure form as a stable solid oral preparation. Such formulation provides assurance of a uniform pharmaceutically elegant product substantially free of Form II impurity in order to comply with regulatory requirements.
Further certain excipients exacerbate physical instability. For commercial pharmaceutical development and compliance with regulatory guidelines, it is important to assure that marketed formulations comprise a uniform pharmaceutically elegant substantially pure anyhydrous Form I 2-methyl-4-(4-methyl-1-piperazinyl)-10H-thieno[2,3-b] [1,5] benzodiazepine compound as the active ingredient and most preferably the formulation is free from undesired discolorations.
(§1) The Form I 2-methyl-4-(4-methyl-1-piperazinyl)-10H-thieno[2,3-b]

The nature of data set [3]: Discoloration of olanzapine on contact with excipients. It is filed as physicochemical.
Text: Further, the discoloration was exacerbated by ambient air conditions, at elevated temperatures, and by moist environments.
as §1

For `Cc1cc2c(s1)Nc1ccccc1N=C2N1CCN(C)CC1` [2-methyl-4-(4-methyl-1-piperazinyl)-10H-thieno-[2,3-b] [1,5]benzodiazepine], the detection in saliva result in data set [1] is recorded as “can be detected in the saliva”.

Consider `Cc1cc2c(s1)Nc1ccccc1N=C2N1CCN(C)CC1` [Form I olanzapine, 2-methyl-4-(4-methyl-1-piperazinyl)-10H-thieno[2,3-b][1,5] benzodiazepine], for which the polymorph stability entry in data set [2] was “most stable known form”. For the same compound, the polymorphic conversion entry in data set [2] (contact with methylene chloride) is given as “can be converted to the less desirable polymorphic forms”.

Take `Cc1cc2c(s1)Nc1ccccc1N=C2N1CCN(C)CC1` [anhydrous Form II olanzapine, 2-methyl-4-(4-methyl-1-piperazinyl)-10H-thieno[2,3-b][1,5] benzodiazepine]: the polymorph stability entry in data set [2] was “metastable”.

On to `Cc1cc2c(s1)Nc1ccccc1N=C2N1CCN(C)CC1` [olanzapine, 2-methyl-4-(4-methyl-1-piperazinyl)-10H-thieno[2,3-b][1,5] benzodiazepine], for which the discoloration result in data set [3] (contacted with certain excipients including powder blends) is on record as “undergoes undesirable discoloration”; in data set [3] (polyethylene glycol contact, particularly under moist conditions), “produces undesired discoloration”.
